How the values were obtained:
RBL-2H3 cells = assay: IgE-induced Beta-hexosaminidase secretion in RBL-2H3 cells; type: cell-based; conditions: Rattus norvegicus; RBL-2H3 cells sensitized with SPE-7, stimulated with DNP-BSA
Procedure: For the determination of IgE-induced Beta-hexosaminidase secretion, RBL-2H3 cells (SIBS) are seeded in 96 well plates at 4×10^4 cells per well and incubated in MEM media with 15% FBS and Glutamine ([…]) for 4 hours and sensitized with 0.5 ug/ml of SPE-7 overnight. Cells are washed 3 times with Tyrode's buffer and incubated in the presence or absence of various concentrations of the testing compound for 20 min at 37° C., 5% CO2. Cells are stimulated by adding 10 μL of DNP-BSA solution (150 ng/mL) to each well and incubating for 45 minutes at 37° C., 5% CO2. Then, 45 μL of the supernatant is taken and incubated with 100 μL of 1 mM 4-Nitrophenyl N-acetyl-β-D-glucosaminide (Sigma, Cat. No. N9376), which is diluted in 0.05 M citrate buffer (pH 4.5), for 1.5 hr at 37° C. The reactions are quenched by adding 185 μL of 0.05 M sodium carbonate buffer (pH 10.0). Plates are read at 405 nm on Multiskan (MK 3).

[1] = biological target: T1, Recombinant human KDR (VEGFR-2) (Homo sapiens, UniProt P35968); assay: Transcreener kinase assay of VEGFR-2 (KDR); type: biochemical; conditions: Poly E4Y substrate
T1 construct: purchased Invitrogen PV3660
Procedure: Transcreener kinase assay of VEGFR-2 (KDR)
1. Solution preparation • 1) Transcreenen™ KINASE Assy kit: Bellbrook Labs, 3003-10 K; • 2) Recombinant human KDR: Invitrogen, PV3660; • 3) Poly E4Y (substrate): Sigma, P0275; 5 mg/mL, dissolved in MilliQ water; • 4) Assay buffer: 67 mM HEPES, 0.013% Triton X-100, 27 mM MgCl2, 0.67 mM MnCl2 1.25 mM DTT, PH 7.4; • 5) 10 mM ATP: Invitrogen, PV3227; • 6) 500 mM EDTA: Invitrogen, 15575-038; • 7) 96 well black Greiner plate: Greiner, 675076.
2. Prepare solution • 1) Dilute the compound to 5 folds of final concentrations, keeping the DMSO concentration at 5%. The final concentrations are 1, 0.33, 0.11, 0.037, 0.012, 0.004, 0.0014, 0.0005 μM; and the final concentration of DMSO is 1%. • 2) Prepare Enzyme/Substrate stock, Recombinant human KDR and Poly E4Y are both diluted in assay buffer. The final concentration is KDR (0.3 ng/μL), Poly E4Y (62.5 ng/μL). The mixture is keeping on ice surface before use; • 3) Prepare ATP Diluents, 10 mM ATP is diluted in assay buffer, the final concentration is 25 μM; • 4) Prepare ADP Diluents: diluted ADP (500 μM) in assay buffer, the final concentration is 25 μM; • 5) Prepare ATP standard curve stock as following:
3. Enzymatic reaction • 1) Add 5 μL of compound or control. (positive control, 5 μL of 5% DMSO; negative control, 5 μL of 500 mM EDTA); • 2) Add 10 μL of Enzyme/Substrate stock; • 3) Add 10 μL of ATP Diluents to begin the enzyme reaction and mix on plate shaker; • 4) Add 5 μL 5% DMSO, 10 μL of assay buffer and 10 μL of ATP standard curve stock into standard curve wells; • 5) Incubate at 28° C. for 45 min, keeping plate in gently shaking.
4. Stop reaction and detect ADP • 1) Prepare Detection Mix: diluted ADP Alexa633 tracer (1:100), ADP antibody (1:158), and stop & detect buffer (1:10) by MilliQ water; • 2) Prepare Tracer Only control: diluted ADP Alexa633 tracer (1:100) and stop & detect buffer (1:10) by MilliQ water; • 3) Prepare No Tracer control: diluted stop & detect buffer (1:10) by MilliQ water; • 4) Add 25 μL of detection mix, Tracer Only control and No Tracer control into corresponding wells, respectively; • 5) Incubate at 28° C. for 1 h, keeping plate in gently shaking; • 6) Measure florescence polarization (FP) on TECAN F500. Excitation wavelength: 610 nm, Emission wavelength: 670 nm.
Wherein: • 1) Compound well [ADP] represents the ADP concentration of compound well. • 2) Positive control well [ADP] represents the ADP concentration of 5% DMSO well • 3) Conversion of mP value to ADP concentration based on the formula which determined by standard curve.
IC50: calculated using XL-Fit 2.0 software.

Flt3 kinase = biological target: T2, Flt3 kinase (Homo sapiens, UniProt P36888); assay: Z-lyte kinase assay of Flt-3; type: biochemical; conditions: Z-LYTE Tyr 2 peptide; final concentrations 3 to 0.0014 μM
T2 construct: purchased Invitrogen PV3182
T2 sequence (P36888 564-993 limits assumed): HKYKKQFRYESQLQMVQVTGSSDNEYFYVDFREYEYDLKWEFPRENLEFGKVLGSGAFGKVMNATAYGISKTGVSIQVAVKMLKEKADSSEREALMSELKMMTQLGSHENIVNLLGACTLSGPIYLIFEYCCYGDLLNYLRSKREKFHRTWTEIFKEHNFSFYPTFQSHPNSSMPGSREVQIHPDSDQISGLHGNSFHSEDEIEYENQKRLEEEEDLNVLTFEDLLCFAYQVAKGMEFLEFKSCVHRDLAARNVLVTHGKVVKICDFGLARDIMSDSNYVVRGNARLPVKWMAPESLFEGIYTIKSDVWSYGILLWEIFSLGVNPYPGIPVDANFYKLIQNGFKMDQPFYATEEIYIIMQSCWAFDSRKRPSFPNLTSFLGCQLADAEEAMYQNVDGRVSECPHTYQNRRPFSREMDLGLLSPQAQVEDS
Procedure: Z-lyte kinase assay of Flt-3:
Dilute 5× Kinase Buffer to 1,33× with ddH2O
Serially dilute the test compounds to 4 folds of the concentrations desired, keeping the DMSO concentration at 8%. The final concentrations were 3, 1, 0.33, 0.11, 0.037, 0.012, 0.004, 0.0014 μM, and the final concentration of DMSO was 2%,
Prepare Kinase/Peptide Mixture by diluting the kinase to 0.12 μg/mL and the Z-LYTE™ Tyr 2 peptide to 4 μM in 1.33× Kinase Buffer. Mix gently by pipetting. 4) Phcspho-peptide Solution (PP solution)
Add 0.4 μL of Z-LYTE™ Tyr 2 Phospho-peptide to 99.6 μL of 1.33× Kinase Buffer.
Prepare ATP Solution by diluting the 10 mM of ATP in 1.33× Kinase Buffer to 1.88 mM.
Dilute Development Reagent A with Development Buffer as 1:64.
1) Kinase reaction (10 μL of Volume) • a. Add 2.5 μL of 4× test Cpds to each well except C1, C2, C3 wells
Add 2.5 μL of 8% DMSO to C1, C2, C3 wells • b. Put the 384-plate on ice • c. Add 5 μL of P/K mixture to each test Cpd wells and C1, C2 wells • d. Add 5 μL of PP Solution to C3 well • e. Add 2.5 μL of 1,33× kinase buffer to C1 and C3 wells • f. Add 2.5 μL of 4×ATP Solution to each test Cpd wells and C2 well, respectively.
Shake the plate for 30 Sec and centrifuge (1500 rpm, 1 min) • g. Seal the plate to protect from the light and incubate the plate for 1 hour at RT (25-30° C.) 2) Development reaction • a. Add 5 μL of the Development solution to all wells • b. Shake the plate for 30 Sec and centrifuge (1500 rpm, 1 min) • c. Seal the plate to protect from the light and incubate the plate for 1 hour at RT (25-30° C.) 3) Stop and read • a. Add 5 μL of the Stop reagent to all wells • b. Shake the plate for 30 Sec and centrifuge (1500 rpm, 1 min) • c. Measure the value of Coumarin (Ex400 nm, Em445 nm) and fluorescein (Ex400 nm, Em520 nm), respectively. 4. Data analysis
Emission Ratio (ER) Coumarin Emission (445 nm)/Fluorescein Emission (520 nm)
inhibition ratio (IR)=1−% Photest Cpd/% PhoC2%
IC50 Value: determined with add-in software for Microsoft Excel, XLfit™ (version 2.0) from ID Business Solutions (Guildford: UK)

T1 sequence (P35968 789-1356 limits assumed): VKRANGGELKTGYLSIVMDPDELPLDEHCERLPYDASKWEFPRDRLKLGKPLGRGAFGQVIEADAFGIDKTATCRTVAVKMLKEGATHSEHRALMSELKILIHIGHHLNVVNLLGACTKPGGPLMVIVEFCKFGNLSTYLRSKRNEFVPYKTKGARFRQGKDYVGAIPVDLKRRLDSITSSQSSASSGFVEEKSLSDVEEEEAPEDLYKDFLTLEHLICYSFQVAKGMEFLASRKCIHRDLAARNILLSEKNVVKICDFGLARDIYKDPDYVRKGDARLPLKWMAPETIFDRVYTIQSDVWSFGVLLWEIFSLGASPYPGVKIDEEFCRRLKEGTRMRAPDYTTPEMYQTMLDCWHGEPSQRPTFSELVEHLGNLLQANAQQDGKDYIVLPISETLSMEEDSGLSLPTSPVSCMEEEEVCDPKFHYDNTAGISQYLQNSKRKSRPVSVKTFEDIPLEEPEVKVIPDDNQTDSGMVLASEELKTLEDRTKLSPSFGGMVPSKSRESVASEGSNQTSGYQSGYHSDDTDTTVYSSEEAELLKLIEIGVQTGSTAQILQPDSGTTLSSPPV

Row | IC50 [1] [µM] | IC50 (Flt3 kinase) [µM] | Structure (SMILES) | IC50 (RBL-2H3 cells) [µM]
1 | 1.33 | – | CC(=O)N1CCC(c2ccc(-c3cc4nccnc4c(OC[C@@H]4CN(S(C)(=O)=O)CCO4)n3)cc2)CC1 [Compound 33] | 0.001 to 0.1
2 | > 3 | 2.42 | CN(C)c1ccc(-c2cc3nccnc3c(OC[C@@H]3CN(S(C)(=O)=O)CCO3)n2)cc1Cl [Compound 108] | 0.001 to 0.1
3 | > 3 | 1.6 | COc1ccc(-c2cc3nccnc3c(OC[C@@H]3CN(S(C)(=O)=O)CCO3)n2)cc1OC [Compound 43] | 0.001 to 0.1
4 | 2.96 | – | CN(C)c1ccc(-c2cc3nccnc3c(OC[C@@H]3CN(S(C)(=O)=O)CCO3)n2)cc1F [Compound 53] | 0.001 to 0.1
5 | 1.6 | – | CS(=O)(=O)N1CCN(c2ccc(-c3cc4nccnc4c(OC[C@@H]4CN(S(C)(=O)=O)CCO4)n3)cc2)CC1 [Compound 26] | 0.1 to 1
6 | 1.56 | 1.64 | CS(=O)(=O)N1CCC(c2ccc(-c3cc4nccnc4c(OC[C@@H]4CN(S(C)(=O)=O)CCO4)n3)cc2)CC1 [Compound 57, (S)-4-(methylsulfonyl)-2-((7-(4-(1-(methylsulfonyl)piperidin-4-yl)phenyl)pyrido[4,3,-b]pyrazin-5-yloxy)methyl)morpholine] | 0.001 to 0.1

From US20150307491A1, “SUBSTITUTED PYRIDOPYRAZINES AS SYK INHIBITORS” (HUTCHISON MEDIPHARMA LIMITED, priority 2012, published 2015)
